# In article PMC7909954 (eLife, 2021):
# Several values for one entry are separate records, joined by “and”; a condition that tells them apart may be missing. Equal entries are not always repeated. Where two headings read alike, the source gives them in different places.
# What was measured:
# mKOR = mKOR (Mus musculus, UniProt P33534); assay: biochemical
# α2C-adrenoreceptors = target: T1, α2C-adrenoreceptors (Homo sapiens, UniProt P18825); assay: Radioligand binding counter-screen (NIMH PDSP)
# T1 construct: NIMH Psychoactive Drug Screening Program
# T1 sequence (P18825 1-462): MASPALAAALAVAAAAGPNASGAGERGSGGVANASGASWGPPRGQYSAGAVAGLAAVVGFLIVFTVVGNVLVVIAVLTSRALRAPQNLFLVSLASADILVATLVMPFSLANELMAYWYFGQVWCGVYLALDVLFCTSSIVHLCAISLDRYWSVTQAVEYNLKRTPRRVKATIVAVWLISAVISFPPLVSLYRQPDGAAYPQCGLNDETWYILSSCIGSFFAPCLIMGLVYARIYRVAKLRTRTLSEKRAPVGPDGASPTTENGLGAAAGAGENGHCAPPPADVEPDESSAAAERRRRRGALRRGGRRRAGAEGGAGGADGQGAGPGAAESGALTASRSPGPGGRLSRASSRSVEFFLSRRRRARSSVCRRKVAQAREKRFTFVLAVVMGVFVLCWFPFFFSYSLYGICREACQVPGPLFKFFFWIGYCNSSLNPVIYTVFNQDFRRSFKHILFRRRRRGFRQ
# SERT = target: T2, SERT (Homo sapiens, UniProt P31645); assay: Radioligand binding counter-screen (NIMH PDSP)
# T2 construct: NIMH Psychoactive Drug Screening Program
# T2 sequence (P31645 whole entry, species assumed): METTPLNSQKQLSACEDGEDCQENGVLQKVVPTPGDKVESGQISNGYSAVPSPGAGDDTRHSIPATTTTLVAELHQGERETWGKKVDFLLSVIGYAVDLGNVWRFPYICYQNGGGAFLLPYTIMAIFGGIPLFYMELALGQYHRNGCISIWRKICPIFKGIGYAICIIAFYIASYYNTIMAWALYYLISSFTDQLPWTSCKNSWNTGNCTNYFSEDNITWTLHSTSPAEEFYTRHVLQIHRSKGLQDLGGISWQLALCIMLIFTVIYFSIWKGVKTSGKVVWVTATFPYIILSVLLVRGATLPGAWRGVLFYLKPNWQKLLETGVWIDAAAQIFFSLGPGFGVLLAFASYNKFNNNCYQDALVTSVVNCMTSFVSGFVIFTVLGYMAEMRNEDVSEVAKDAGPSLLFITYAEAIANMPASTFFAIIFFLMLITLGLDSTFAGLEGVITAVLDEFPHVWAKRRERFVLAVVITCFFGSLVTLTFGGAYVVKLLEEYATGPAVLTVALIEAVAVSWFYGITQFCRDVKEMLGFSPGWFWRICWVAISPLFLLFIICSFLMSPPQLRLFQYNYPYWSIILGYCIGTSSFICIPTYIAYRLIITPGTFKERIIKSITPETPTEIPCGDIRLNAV
# KOR [1] = target: T3, KOR (Homo sapiens, UniProt P41145); assay: cell-based
# T3 sequence (P41145 whole entry): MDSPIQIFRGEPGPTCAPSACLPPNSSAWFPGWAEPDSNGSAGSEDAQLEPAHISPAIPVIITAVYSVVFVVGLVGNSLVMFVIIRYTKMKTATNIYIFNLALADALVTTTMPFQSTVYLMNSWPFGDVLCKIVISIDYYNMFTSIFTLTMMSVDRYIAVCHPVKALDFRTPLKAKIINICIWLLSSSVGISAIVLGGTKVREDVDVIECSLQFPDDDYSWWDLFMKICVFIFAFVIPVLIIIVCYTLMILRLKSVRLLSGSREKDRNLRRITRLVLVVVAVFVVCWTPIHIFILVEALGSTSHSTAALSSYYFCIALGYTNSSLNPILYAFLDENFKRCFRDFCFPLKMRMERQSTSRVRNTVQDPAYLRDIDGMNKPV
# mMOR [2] = target: T4, mMOR (Mus musculus, UniProt P42866); assay: cell-based; design: expressed in transfected cells; host or cells: HEK-293T
# T4 sequence (P42866 whole entry): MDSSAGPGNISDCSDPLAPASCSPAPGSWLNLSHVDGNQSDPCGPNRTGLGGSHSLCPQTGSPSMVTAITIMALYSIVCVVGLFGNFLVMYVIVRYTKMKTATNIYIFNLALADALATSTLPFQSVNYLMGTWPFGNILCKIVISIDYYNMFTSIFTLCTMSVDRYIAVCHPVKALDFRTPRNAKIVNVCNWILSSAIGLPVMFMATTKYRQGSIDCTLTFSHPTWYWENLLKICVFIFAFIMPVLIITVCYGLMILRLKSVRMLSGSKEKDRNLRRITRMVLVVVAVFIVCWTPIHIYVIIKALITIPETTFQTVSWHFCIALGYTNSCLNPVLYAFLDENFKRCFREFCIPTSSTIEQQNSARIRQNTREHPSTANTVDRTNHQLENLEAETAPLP
# mMOR [3] = target: T4, mMOR; assay: biochemical
# DOR = DOR (Homo sapiens, UniProt P41143); assay: cell-based
# DOR, sequence (P41143 whole entry): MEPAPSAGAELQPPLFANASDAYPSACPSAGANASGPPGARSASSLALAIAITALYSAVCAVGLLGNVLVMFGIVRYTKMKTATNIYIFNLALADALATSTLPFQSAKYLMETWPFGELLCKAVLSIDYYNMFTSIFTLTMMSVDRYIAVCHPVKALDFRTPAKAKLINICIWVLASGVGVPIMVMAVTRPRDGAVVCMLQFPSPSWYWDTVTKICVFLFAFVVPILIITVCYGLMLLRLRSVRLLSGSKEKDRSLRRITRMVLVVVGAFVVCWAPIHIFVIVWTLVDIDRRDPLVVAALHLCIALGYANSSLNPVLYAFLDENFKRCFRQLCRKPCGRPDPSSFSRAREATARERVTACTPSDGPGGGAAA
# mDOR = mDOR (Mus musculus, UniProt P32300); assay: cell-based
# mDOR, sequence (P32300 whole entry): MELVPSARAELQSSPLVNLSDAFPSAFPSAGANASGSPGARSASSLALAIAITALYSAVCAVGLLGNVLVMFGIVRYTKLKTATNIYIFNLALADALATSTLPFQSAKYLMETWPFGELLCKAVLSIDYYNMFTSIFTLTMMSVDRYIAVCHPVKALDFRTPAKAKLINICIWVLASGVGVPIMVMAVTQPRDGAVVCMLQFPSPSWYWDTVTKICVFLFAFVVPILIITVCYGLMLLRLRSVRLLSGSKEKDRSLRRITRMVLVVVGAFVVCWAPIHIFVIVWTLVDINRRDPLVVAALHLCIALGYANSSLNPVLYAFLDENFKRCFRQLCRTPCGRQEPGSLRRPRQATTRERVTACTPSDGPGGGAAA
# KOR [4] = target: T3, KOR; assay: cell-based; remark: listed apart in the source
# KOR [5] = target: T3, KOR
# MOR = MOR (Homo sapiens, UniProt P35372); assay: cell-based
# MOR, sequence (P35372 whole entry): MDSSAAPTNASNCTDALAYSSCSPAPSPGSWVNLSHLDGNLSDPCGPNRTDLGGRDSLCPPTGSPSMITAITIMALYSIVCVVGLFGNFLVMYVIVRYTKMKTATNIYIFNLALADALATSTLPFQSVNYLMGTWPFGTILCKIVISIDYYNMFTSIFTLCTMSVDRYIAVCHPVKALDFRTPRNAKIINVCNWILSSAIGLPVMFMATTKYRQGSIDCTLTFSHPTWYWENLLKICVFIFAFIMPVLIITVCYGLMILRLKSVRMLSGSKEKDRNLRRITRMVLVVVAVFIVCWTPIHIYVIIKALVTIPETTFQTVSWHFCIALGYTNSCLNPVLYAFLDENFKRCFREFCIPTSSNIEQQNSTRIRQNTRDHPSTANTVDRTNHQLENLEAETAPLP
# [6] = transduction coefficient log(T/KA)
# mKOR, sequence (P33534 whole entry): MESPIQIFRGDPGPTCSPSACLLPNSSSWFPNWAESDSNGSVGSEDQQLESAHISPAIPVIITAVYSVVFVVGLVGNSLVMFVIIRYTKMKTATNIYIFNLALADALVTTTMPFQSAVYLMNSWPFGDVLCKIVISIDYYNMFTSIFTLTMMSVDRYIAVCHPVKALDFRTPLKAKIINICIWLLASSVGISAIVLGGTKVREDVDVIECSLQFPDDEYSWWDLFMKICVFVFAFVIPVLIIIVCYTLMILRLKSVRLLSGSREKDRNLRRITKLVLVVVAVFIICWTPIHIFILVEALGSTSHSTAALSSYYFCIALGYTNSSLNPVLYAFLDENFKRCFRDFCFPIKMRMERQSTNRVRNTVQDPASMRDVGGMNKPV
smiles,measurement,setting,value
"NCc1cccc(C(=O)N[C@@H]2CCC3C4Cc5ccc(O)c6c5[C@@]3(CCN4CC3CC3)C2O6)c1 (stereo partly drawn) [MP1207, 3-(Aminomethyl)-N-((7R,12bS)−3-(cyclopropylmethyl)−9-hydroxy-2,3,4,4a,5,6,7,7a-octahydro-1H-4,12-methanobenzofuro[3,2-e]isoquinolin-7-yl)benzamide]",EC50,"mKOR; EC50 mKOR [35S]GTPγS, ± SEM",1.5 nM and 1.52 nM
same,Emax,mKOR; read-out: Emax mKOR [35S]GTPγS,39.3 ± 1.3%
same,Ki,α2C-adrenoreceptors,2980 nM
same,Ki,SERT,356 nM
same,selectivity for MOR and KOR over the nearest non-opioid target,SERT; from counter-screen Ki,900 fold
same,EC50,KOR [1]; EC50 arrestin recruitment (Tango) hKOR,3.97 nM
same,Emax,"KOR [1]; HTLA, read-out: Emax% arrestin recruitment (Tango) hKOR",37 ± 2%
same,arrestin recruitment at mMOR (in words),mMOR [2],No recruitment of βarrestin-2
same,EC50,"mMOR [3]; EC50 mMOR [35S]GTPγS, ± SEM",1.3 nM and 1.29 nM
same,Emax,mMOR [3]; read-out: Emax mMOR [35S]GTPγS,41 ± 1%
same,EC50,DOR; EC50 cAMP inhibition hDOR,11.4 nM
same,Emax,"DOR; HEK-293T, read-out: Emax% cAMP inhibition hDOR",38 ± 2%
same,EC50,mDOR; EC50 G protein activation (BRET) mDOR,116 nM
same,Emax,"mDOR; HEK-293T, read-out: Emax% G protein activation (BRET) mDOR",52 ± 2.3%
same,EC50,KOR [4]; EC50 cAMP inhibition hKOR,0.11 nM
same,Emax,"KOR [4]; HEK-293T, read-out: Emax% cAMP inhibition hKOR",90 ± 1.7%
same,EC50,"KOR [4]; pEC50 cAMP inhibition hKOR, ± SEM",0.105 nM
same,ΔΔlog RA (cAMP-Tango) hKOR,KOR [5],0.903±0.026
same,Bias factor (cAMP-Tango) hKOR,"KOR [5]; >1 G protein bias, <1 arrestin bias, vs U50,488h",8
same,Log RA cAMP hKOR,KOR [5]; [6],9.902±0.004
same,LogRA Tango hKOR,KOR [5]; [6],7.97±0.024
same,ΔlogRA Tango hKOR,"KOR [5]; vs U50,488h",-0.176±0.025
same,ΔlogRA cAMP hKOR,"KOR [5]; vs U50,488h",0.73±0.006
same,Emax,"MOR; HEK-293T, read-out: Emax% cAMP inhibition hMOR",33 ± 1.4%
same,EC50,MOR; pEC50 cAMP inhibition hMOR,0.0339 nM
